How the values were obtained:
[1] = system: Murine Leukemia L1210/DACH; experiment: In vivo antitumor activity against murine leukemia L1210/DACH (Example 3, Table 6); parameters: species or system BDF1 mice; conditions: for MTD (Maximum Tolerated Dose) / % T/C (mean survival time of treated/mean survival time of control) × 100 / long term survivors/no. tested: L1210/DACH i.p., BDF1 mice, drug i.p. days 1, 5, 9; for % T/C (mean survival time of treated/mean survival time of control) × 100: at optimal dose/MTD; for long term survivors/no. tested: figures in parenthesis
Protocol: (§1) Each of the platinum complexes was evaluated in vivo against L1210/0, L1210/DDP, L1210/DACH and M5076 cells at several dose levels. […] The data at optimal doses are reproduced in Tables 4-7 along with data for the cyclobutanedicarboxylato, aquasulfato, methylmalonato and tartronato analogs (compounds 1-4 in Table 1).
(§2) BDF1 mice inoculated i.p. with 10^5 L1210 Leukemia cells on day 0 and
(§3) drug administered i.p. on days 1, 5, and 9. MTD = Maximum Tolerated Dose
(§4) (mg/kg/injection), % T/C = (mean survival time of treated/mean survival
(§5) time of control) × 100. Figures in parenthesis indicated long term

M5076 Tumor Model = experiment: In vivo antitumor activity against M5076 tumor model (Example 3, Table 4); parameters: species or system BDF1 mice; TGD (Tumor Growth Delay): unit not given beside the values; conditions: M5076 s.c., BDF1 mice, i.p. days 7, 14, 21, 28; for TGD (Tumor Growth Delay): at optimal dose/MTD
Protocol: as §1
BDF1 mice inoculated s.c. with 10' M5076 cells on day 0 and drug
administered i.p on days 7, 14, 21, and 28. MTD = Maximum Tolerated Dose
(mg/kg/injection), TGD = Tumor Growth Delay

A2780 cells = experiment: Modified MTT cytotoxicity assay, human ovarian A2780 (Example 2, Table 3); assay type: cell-based; conditions: continuous exposure (5 days in table footnote; 7 days in text)
L1210/0 cells [2] = experiment: Modified MTT cytotoxicity assay, murine leukemia L1210/0 (Example 2, Table 3); assay type: cell-based; conditions: L1210/0; MTT, continuous exposure 5 days
Murine Leukemia L1210/0 = experiment: In vivo antitumor activity against murine leukemia L1210/0 (Example 3, Table 5); parameters: species or system BDF1 mice; conditions: L1210/0 i.p., BDF1 mice, drug i.p. days 1, 5, 9; for % T/C (mean survival time of treated/mean survival time of control) × 100: at optimal dose/MTD; for long term survivors/no. tested: figures in parenthesis
Protocol: as §1
BDF1 mice inoculated i.p. with 10^5 L1210 Leukemiacells on day 0 and
as §3, §4
time of control) × 100. Figures in parenthesis indicate long term

[3] = Renal and hematological toxicity, single i.p. dose (Table 8)
L1210/DACH cells = experiment: MTT cytotoxicity, tetraplatin-resistant L1210/DACH (Example 5, Table 10); assay type: cell-based, murine; conditions: 72 hr (3 days) continuous exposure
L1210/0 cells [4] = experiment: MTT cytotoxicity, L1210/0 (Example 5, Table 10); assay type: cell-based, murine; conditions: 72 hr (3 days) continuous exposure
L1210/DDP cells = experiment: MTT cytotoxicity, cisplatin-resistant L1210/DDP (Example 5, Table 10); assay type: cell-based, murine; conditions: 72 hr (3 days) continuous exposure
Murine Leukemia 1210/DDP = experiment: In vivo antitumor activity against murine leukemia L1210/DDP (Example 3, Table 7); parameters: species or system BDF1 mice; conditions: L1210/DDP i.p., BDF1 mice, drug i.p. days 1, 5, 9
Protocol: as §1, §2
drug administed i.p. on days 1, 5, and 9. MTD = Maximum Tolerated Dose
as §4, §5

**Q.** With `CC(C(=O)[O-])C(=O)[O-].N[C@H]1CC[C@@H](N)CC1.O.[Pt+2]` [Compound 3, Cis-1,4-Diaminocyclohexanemethylmalonatoplatinum(II). H2 O] as the compound, how does the “MTD (Maximum Tolerated Dose)” value [1] read?
**A.** Its value is 100 mg/kg/injection.

**Q.** What about the “% T/C (mean survival time of treated/mean survival time of control) × 100” value [1] of the same compound?
**A.** The value was 180%.

**Q.** And the “long term survivors/no. tested” value [1]?
**A.** Its value is 1/5.

**Q.** What about the “MTD (Maximum Tolerated Dose)” value (M5076 Tumor Model) of the same compound?
**A.** The value was 200 mg/kg/injection.

**Q.** And the “TGD (Tumor Growth Delay)” value (M5076 Tumor Model)?
**A.** Its value is 23.62.

**Q.** What about the IC50 (A2780 cells) of the same compound?
**A.** The IC50 was 0.13 µM.

**Q.** And the IC50 (L1210/0 cells [2])?
**A.** The IC50 was 0.28 µM.

**Q.** What about the “MTD (Maximum Tolerated Dose)” value (Murine Leukemia L1210/0) of the same compound?
**A.** Its value is 200 mg/kg/injection.

**Q.** And the “% T/C (mean survival time of treated/mean survival time of control) × 100” value (Murine Leukemia L1210/0)?
**A.** Its value is 382%.

**Q.** What about the “long term survivors/no. tested” value (Murine Leukemia L1210/0) of the same compound?
**A.** Its value is 1/5.

**Q.** What does the source list for `N.N.O=C([O-])C1(C(=O)[O-])CCC1.[Pt+2]` [Carboplatin]?
**A.** BUN d.5 ([3]; blood urea nitrogen, single i.p. dose (mg/kg): 1,4-DACH-Pt^II CBDCA 300, 1,4-DACH-Pt^IV Cl4 8.0, Tetraplatin 8.0, Cis-platin 12.0, Carboplatin 150, saline control 20.9): 15.8 mg %; Survivors on d.14 ([3]; single i.p. dose (mg/kg): 1,4-DACH-Pt^II CBDCA 300, 1,4-DACH-Pt^IV Cl4 8.0, Tetraplatin 8.0, Cis-platin 12.0, Carboplatin 150): 0/5; Body Wt. on d.5 ([3]; single i.p. dose (mg/kg): 1,4-DACH-Pt^II CBDCA 300, 1,4-DACH-Pt^IV Cl4 8.0, Tetraplatin 8.0, Cis-platin 12.0, Carboplatin 150, mean, S.D. less than 20%): 79 % on control; myelotoxicity / myelosuppression (in words) ([3]; single i.p. dose, leucopenia): myelosuppressive

**Q.** Which results are given for `NC1CCC(N)CC1.O=C1[O][Pt][O]C1=O` (stereo not drawn) [Compound 5, Cis-1,4-diaminocyclohexaneoxalatoplatinum(II)]?
**A.** IC50 (A2780 cells): 0.06 µM; IC50 (L1210/0 cells [2]): 0.24 µM

**Q.** What does the source list for `CCC(=O)[O][Pt]([Cl])([Cl])[O]C(=O)CC.N[C@@H]1CCCC[C@H]1N` [Compound 16, (R,R-1,2-DACH)PtCl2 trans-(Propionate)2]?
**A.** IC50 (L1210/DACH cells): 0.55 µM; IC50 (L1210/0 cells [4]): 0.11 µM; IC50 (L1210/DDP cells): 0.56 µM

**Q.** What does the source list for `NC1CCC(N)CC1.O=C1[O][Pt]([Cl])([Cl])[O]C(=O)C12CCC2` [Compound 9, Cis-1,4-diaminocyclohexane-1,1-cyclobutanedicarboxylato-dichloroplatinum(IV)]?
**A.** IC50 (A2780 cells): 0.05 µM; IC50 (L1210/0 cells [2]): 0.14 µM

**Q.** For `CCCC(=O)[O][Pt]([Cl])([Cl])[O]C(=O)CCC.N[C@@H]1CCCC[C@H]1N` [Compound 17, (R,R-1,2-diaminocyclohexane)PtCl2 trans(butyrate)2], which IC50 (L1210/DACH cells) is on record?
**A.** Its IC50 is 0.17 µM.

**Q.** And the IC50 (L1210/0 cells [4])?
**A.** The IC50 was 0.04 µM.

**Q.** What about the IC50 (L1210/DDP cells) of the same compound?
**A.** Its IC50 is 0.22 µM.

**Q.** With `NC1CCC(N)CC1.[OH][Pt]([OH])([Cl])[Cl]` (stereo not drawn) [Compound 8, Cis-1,4-diaminocyclohexanedichlorodihydroxoplatinum(IV)] as the compound, how does the IC50 (A2780 cells) read?
**A.** The IC50 was 0.14 µM.

**Q.** What about the IC50 (L1210/0 cells [2]) of the same compound?
**A.** Its IC50 is 0.88 µM.

**Q.** Which IC50 (A2780 cells) does the source give for `CC(=O)[O][Pt]([Cl])([Cl])[O]C(C)=O.NC1CCC(N)CC1` [Compound 11, Cis-1,4-diamtinocyclohexanedichlorodiacetatoplatinum (IV)] here?
**A.** Its IC50 is 0.045 µM.

**Q.** Which results are given for `NC1CCC(N)CC1.O=C1[O][Pt][O]C(=O)C1O` [Compound 4, Cis-1,4-diaminocyclohexanetartronatoplatinum(II)]?
**A.** antitumor activity in vivo against L1210/DACH (in words) ([1]; L1210/DACH): highly active; MTD (Maximum Tolerated Dose) [1]: 50 mg/kg/injection; % T/C (mean survival time of treated/mean survival time of control) × 100 [1]: 343%; long term survivors/no. tested [1]: 4/5; cure rate ([1]; L1210/DACH, Table 6): 80%; MTD (Maximum Tolerated Dose) (M5076 Tumor Model): 50 mg/kg/injection; TGD (Tumor Growth Delay) (M5076 Tumor Model): 30.66; IC50 (A2780 cells): 0.11 µM; IC50 (L1210/0 cells [2]): 0.5 µM; MTD (Maximum Tolerated Dose) (Murine Leukemia L1210/0): 25 mg/kg/injection; % T/C (mean survival time of treated/mean survival time of control) × 100 (Murine Leukemia L1210/0): 406%; long term survivors/no. tested (Murine Leukemia L1210/0): 1/5; MTD (Maximum Tolerated Dose) (Murine Leukemia 1210/DDP): 50 mg/kg/injection; % T/C (mean survival time of treated/mean survival time of control) × 100 (Murine Leukemia 1210/DDP; at optimal dose/MTD): 187%

**Q.** Which IC50 (L1210/DACH cells) does the source give for `CCCCC(=O)[O][Pt]([Cl])([Cl])[O]C(=O)CCCC.N[C@@H]1CCCC[C@H]1N` [Compound 18, (R,R-1,2-DACH)PtCl2 trans(pentanoate)2] here?
**A.** The IC50 was 0.24 µM.

**Q.** And the IC50 (L1210/0 cells [4])?
**A.** The IC50 was 0.04 µM.

**Q.** And the IC50 (L1210/DDP cells)?
**A.** The IC50 was 0.27 µM.
